What is called Dmax is the greatest extent of degradation seen. The DC50 is the concentration at which degradation of the target reaches its halfway point. Usually IC50 stands for the concentration that inhibits the measured activity by half.

For test [1], the target named is T1, IRAK4 (Homo sapiens (Human), UniProt Q9NWZ3). Description: IRAK4 Degradation HiBiT Assay. Conditions: multiple runs, HiBiT-tagged Jurkat cells, 4 hrs; for Dmax: Jurkat, read-out: Cellular IRAK4 HiBiT: Dmax, Table 5; for DC50: read-out: Cellular IRAK4 HiBiT: DC50, Table 5. A general note: HiBiT is a short tag that completes a luciferase, so light tracks the accessible tagged protein.
Target sequence in this assay (Q9NWZ3 whole entry): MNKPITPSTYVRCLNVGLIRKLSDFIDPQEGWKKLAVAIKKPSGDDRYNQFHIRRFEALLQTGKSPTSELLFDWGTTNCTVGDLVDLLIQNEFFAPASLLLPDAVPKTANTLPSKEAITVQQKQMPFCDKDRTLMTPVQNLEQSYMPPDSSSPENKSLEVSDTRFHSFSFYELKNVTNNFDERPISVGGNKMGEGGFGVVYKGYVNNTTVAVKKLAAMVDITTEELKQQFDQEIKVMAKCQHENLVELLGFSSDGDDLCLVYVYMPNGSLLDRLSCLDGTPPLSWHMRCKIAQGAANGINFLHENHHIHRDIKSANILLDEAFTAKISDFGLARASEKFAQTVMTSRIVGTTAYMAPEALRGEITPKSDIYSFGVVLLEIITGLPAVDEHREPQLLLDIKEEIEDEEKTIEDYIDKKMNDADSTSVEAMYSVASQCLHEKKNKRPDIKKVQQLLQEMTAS
Method: Compound dilution series (11-point, 3.16-fold dilutions in DMSO, columns 1-11 and 12-22) at 500× the final required concentrations were prepared in Labcyte LDV 384-well plates (cat. no. LP-0200) using a Labcyte Echo 550 Liquid Handler. The 500× solutions ranged from 5 mM to 0.5 μM (final assay concentration range 10 μM to 0.1 nM). Using the Echo, the 500× solutions were stamped into white, 384-well assay plates (Corning, cat. no. 3570) at 60 nL/well. […] C-terminal HiBiT-tagged Jurkat cells (polyclonal cell line or clone 8D5) were plated at 1×10^6 cells/mL, 30 μL/well (3×10^4 cells/well) in complete RPMI (10% FBS, 1% L-glutamine). Cells were incubated for 4 hrs at 32° C./6% CO2.
Following incubation, 30 uL of complete Nano-Glo HiBiT Lytic Detection Reagent (Nano-Glo HiBiT Lytic Buffer with 1:50 Nano-Glo HiBiT Lytic Substrate and 1:100 LgBiT Protein; Promega cat. no. N3040) was added. Cells were further incubated for 10 min at room temperature (RT). Luminescence units (LU) were read on an EnVision plate reader (Perkin Elmer, 0.1 sec per well). Percent IRAK4 remaining per sample was calculated as follows:
Using Graphpad Prism, % IRAK4 remaining values were plotted as a function of compound concentration.

The target of test [2] is T1, IRAK4. Description: IRAK4 Biochemical HTRF Kinase Assay. The settings on record: Table 5; multiple runs; read-out: IRAK4 HTRF biochemical: IC50. The essentials: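 HTRF KinEASE STK S1 format measuring IRAK4 phosphorylation of biotinylated peptide; reaction solution of 5 μM STK-S1, 10 mM ATP, 10 mM MgCl2 added (stock, to 10 μl final), 90 min at ambient temperature, detection 60 min. IC50 from sixteen-point duplicate curves by non-linear regression.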
Target sequence in this assay (Q9NWZ3 whole entry, species assumed): as the sequence (Q9NWZ3 whole entry) above
(In general: TR-FRET usually uses a lanthanide donor and a delayed reading to cut background.)

As for `CNc1cc(-c2ccc3cc(C#N)cnn23)ncc1-c1nnc(C23CCC(NC(=O)C[C@H](NC(=O)[C@@H]4C[C@@H](O)CN4C(=O)[C@@H](NC(=O)C4(F)CC4)C(C)(C)C)c4ccc(-c5scnc5C)cc4)(CC2)CC3)s1` [Example 140, (2S,4R)—N—((S)-3-((4-(5-(6-(3-cyanopyrrolo[1,2-b]pyridazin-7-yl)-4-(methylamino)pyridin-3-yl)-1,3,4-thiadiazol-2-yl)bicyclo[2.2.2]octan-1-yl)amino)-1-(4-(4-methylthiazol-5-yl)phenyl)-3-oxopropyl)-1-((S)-2-(1-fluorocyclopropane-1-carboxamido)-3,3-dimethylbutanoyl)-4-hydroxypyrrolidine-2-carboxamide], in test [1], the Dmax was 111% and the DC50 amounted to 88.9 nM. Besides, the IC50 in test [2] stood at 2.3 nM.

For the molecule `CNc1cc(-c2ccc3cc(C#N)cnn23)ncc1-c1nnc(C23CCC(NC(=O)CCCC(=O)N[C@H](C(=O)N4C[C@H](O)C[C@H]4C(=O)NCc4ccc(-c5scnc5C)cc4)C(C)(C)C)(CC2)CC3)s1` [Example 141, N1-(4-(5-(6-(3-cyanopyrrolo[1,2-b]pyridazin-7-yl)-4-(methylamino)pyridin-3-yl)-1,3,4-thiadiazol-2-yl)bicyclo[2.2.2]octan-1-yl)-N5-((S)-1-((2S,4R)-4-hydroxy-2-((4-(4-methylthiazol-5-yl)benzyl)carbamoyl)pyrrolidin-1-yl)-3,3-dimethyl-1-oxobutan-2-yl)glutaramide], in test [1], the Dmax stood at 133% and the DC50 amounted to 1910 nM. For the same molecule, the IC50 in test [2] was determined as 1.4 nM.

Take `CNc1cc(-c2ccc3cc(C#N)cnn23)ncc1-c1nnc(N2CCN(C3CCN(Cc4ccc(C(=O)NC5CCC(=O)NC5=O)cc4)CC3)CC2)s1` (stereo not drawn) [Example 145, 4-((4-(4-(5-(6-(3-cyanopyrrolo[1,2-b]pyridazin-7-yl)-4-(methylamino)pyridin-3-yl)-1,3,4-thiadiazol-2-yl)piperazin-1-yl)piperidin-1-yl)methyl)-N-(2,6-dioxopiperidin-3-yl)benzamide]: in test [1], the Dmax worked out at 49% and the DC50 was determined as 109 nM. Also, in test [2], the IC50 was 1.8 nM.

Regarding `CNc1cc(-c2ccc3cc(C#N)cnn23)ncc1-c1nnc(N2CCC(NC(=O)C[C@H](NC(=O)[C@@H]3C[C@@H](O)CN3C(=O)[C@@H](NC(=O)C3(F)CC3)C(C)(C)C)c3ccc(-c4scnc4C)cc3)CC2)s1` [Example 146, (2S,4R)—N—((S)-3-((1-(5-(6-(3-cyanopyrrolo[1,2-b]pyridazin-7-yl)-4-(methylamino)pyridin-3-yl)-1,3,4-thiadiazol-2-yl)piperidin-4-yl)amino)-1-(4-(4-methylthiazol-5-yl)phenyl)-3-oxopropyl)-1-((S)-2-(1-fluorocyclopropane-1-carboxamido)-3,3-dimethylbutanoyl)-4-hydroxypyrrolidine-2-carboxamide], in test [1], the Dmax stood at 77% and the DC50 is 231 nM. Also, the IC50 in test [2] amounted to 2.9 nM.

Regarding `CNc1cc(-c2ccc3cc(C#N)cnn23)ncc1-c1nnc([C@H]2CC[C@H](NC(=O)CN3CCN(c4ccc5c(c4)C(=O)N(C4CCC(=O)N(C)C4=O)C5=O)CC3)CC2)s1` (stereo partly drawn) [Example 148, N-((1r,4r)-4-(5-(6-(3-cyanopyrrolo[1,2-b]pyridazin-7-yl)-4-(methylamino)pyridin-3-yl)-1,3,4-thiadiazol-2-yl)cyclohexyl)-2-(4-(2-(1-methyl-2,6-dioxopiperidin-3-yl)-1,3-dioxoisoindolin-5-yl)piperazin-1-yl)acetamide], the DC50 in test [1] was above 9980 nM. The IC50 in test [2] amounted to 1.4 nM.

Consider `CNc1cc(-c2ccc3cc(C#N)cnn23)ncc1-c1nnc(C2CCC(NC(=O)C[C@H](NC(=O)[C@@H]3C[C@@H](O)CN3C(=O)[C@@H](NC(=O)C3(F)CC3)C(C)(C)C)c3ccccc3)CC2)s1` (stereo partly drawn) [Example 149, (2S,4R)—N—((S)-3-(((1r,4S)-4-(5-(6-(3-cyanopyrrolo[1,2-b]pyridazin-7-yl)-4-(methylamino)pyridin-3-yl)-1,3,4-thiadiazol-2-yl)cyclohexyl)amino)-3-oxo-1-phenylpropyl)-1-((S)-2-(1-fluorocyclopropane-1-carboxamido)-3,3-dimethylbutanoyl)-4-hydroxypyrrolidine-2-carboxamide], for which the DC50 in test [1] was above 9980 nM. In addition, the half-inhibitory concentration (IC50) in test [2] is 0.8 nM.

For `CNc1cc(-c2ccc3cc(C#N)cnn23)ncc1-c1nnc(N2CCCC3(CN(C(=O)C[C@H](NC(=O)[C@@H]4C[C@@H](O)CN4C(=O)[C@@H](NC(=O)C4(F)CC4)C(C)(C)C)c4ccc(-c5scnc5C)cc4)C3)C2)s1` [Example 150, (2S,4R)—N—((S)-3-(6-(5-(6-(3-cyanopyrrolo[1,2-b]pyridazin-7-yl)-4-(methylamino)pyridin-3-yl)-1,3,4-thiadiazol-2-yl)-2,6-diazaspiro[3.5]nonan-2-yl)-1-(4-(4-methylthiazol-5-yl)phenyl)-3-oxopropyl)-1-((S)-2-(1-fluorocyclopropane-1-carboxamido)-3,3-dimethylbutanoyl)-4-hydroxypyrrolidine-2-carboxamide], in test [1], the Dmax was found to be 113% and the DC50 worked out at 441 nM. In test [2], the IC50 was found to be 5.5 nM.

For the molecule `CNc1cc(-c2ccc3cc(C#N)cnn23)ncc1-c1nnc([C@H]2CC[C@H](NC(=O)CCC(=O)N[C@H](C(=O)N3C[C@@H](O)C[C@H]3C(=O)NCc3ccc(-c4scnc4C)cc3)C(C)(C)C)CC2)s1` [Example 151, N1-((1r,4S)-4-(5-(6-(3-cyanopyrrolo[1,2-b]pyridazin-7-yl)-4-(methylamino)pyridin-3-yl)-1,3,4-thiadiazol-2-yl)cyclohexyl)-N4—((S)-1-((2S,4S)-4-hydroxy-2-((4-(4-methylthiazol-5-yl)benzyl)carbamoyl)pyrrolidin-1-yl)-3,3-dimethyl-1-oxobutan-2-yl)succinamide], the DC50 in test [1] is above 6980 nM. Moreover, in test [2], the IC50 was 0.9 nM.

With `CNc1cc(-c2ccc3cc(C#N)cnn23)ncc1-c1nnc([C@H]2CC[C@H](NC(=O)C3CCN(c4ccc5c(c4)C(=O)N(C4CCC(=O)NC4=O)C5=O)CC3)CC2)s1` (stereo partly drawn) [Example 152, N-((1r,4r)-4-(5-(6-(3-cyanopyrrolo[1,2-b]pyridazin-7-yl)-4-(methylamino)pyridin-3-yl)-1,3,4-thiadiazol-2-yl)cyclohexyl)-1-(2-(2,6-dioxopiperidin-3-yl)-1,3-dioxoisoindolin-5-yl)piperidine-4-carboxamide], in test [1], the Dmax was determined as 113% and the DC50 was 63 nM. Also, in test [2], the IC50 turned out to be 0.9 nM.

Turning to `CNc1cc(-c2ccc3cc(C#N)cnn23)ncc1-c1nnc([C@H]2CC[C@H](NC[C@@H]3CCN(c4ccc5c(c4)C(=O)N(C4CCC(=O)NC4=O)C5=O)C3)CC2)s1` (stereo partly drawn) [Example 153, 7-(5-(5-((1S,4r)-4-((((3S)-1-(2-(2,6-dioxopiperidin-3-yl)-1,3-dioxoisoindolin-5-yl)pyrrolidin-3-yl)methyl)amino)cyclohexyl)-1,3,4-thiadiazol-2-yl)-4-(methylamino)pyridin-2-yl)pyrrolo[1,2-b]pyridazine-3-carbonitrile], in test [1], the Dmax was 68% and the DC50 stood at 54.8 nM. Also, the IC50 in test [2] is 0.5 nM.

Consider `CNc1cc(-c2ccc3cc(C#N)cnn23)ncc1-c1nnc([C@H]2CC[C@H](NC(=O)CC(C)(C)C(=O)N[C@H](C(=O)N3C[C@H](O)C[C@H]3C(=O)N[C@@H](C)c3ccc(-c4scnc4C)cc3)C(C)(C)C)CC2)s1` [Example 154, N4-((1r,4S)-4-(5-(6-(3-cyanopyrrolo[1,2-b]pyridazin-7-yl)-4-(methylamino)pyridin-3-yl)-1,3,4-thiadiazol-2-yl)cyclohexyl)-N1—((S)-1-((2S,4R)-4-hydroxy-2-(((S)-1-(4-(4-methylthiazol-5-yl)phenyl)ethyl)carbamoyl)pyrrolidin-1-yl)-3,3-dimethyl-1-oxobutan-2-yl)-2,2-dimethylsuccinamide], for which, in test [1], the Dmax was 68% and the DC50 was determined as 544 nM. For the same molecule, the IC50 in test [2] came to 2.8 nM.

As for `CNc1cc(-c2ccc3cc(C#N)cnn23)ncc1-c1nnc(C23CCC(NC(=O)CC(C)(C)C(=O)N[C@H](C(=O)N4C[C@H](O)C[C@H]4C(=O)N[C@@H](C)c4ccc(-c5scnc5C)cc4)C(C)(C)C)(CC2)CC3)s1` [Example 155, N4-(4-(5-(6-(3-cyanopyrrolo[1,2-b]pyridazin-7-yl)-4-(methylamino)pyridin-3-yl)-1,3,4-thiadiazol-2-yl)bicyclo[2.2.2]octan-1-yl)-N1—((S)-1-((2S,4R)-4-hydroxy-2-(((S)-1-(4-(4-methylthiazol-5-yl)phenyl)ethyl)carbamoyl)pyrrolidin-1-yl)-3,3-dimethyl-1-oxobutan-2-yl)-2,2-dimethylsuccinamide], in test [1], the Dmax stood at 90% and the DC50 came to 519 nM. Also, the IC50 in test [2] stood at 2.4 nM.

Take `CNc1cc(-c2ccc3cc(C#N)cnn23)ncc1-c1nnc(N2CCN(C(=O)N3CCN(Cc4ccc5c(c4)C(=O)N(C4CCC(=O)NC4=O)C5=O)CC3)CC2)s1` (stereo not drawn) [Example 156, 7-(5-(5-(4-(4-((2-(2,6-dioxopiperidin-3-yl)-1,3-dioxoisoindolin-5-yl)methyl)piperazine-1-carbonyl)piperazin-1-yl)-1,3,4-thiadiazol-2-yl)-4-(methylamino)pyridin-2-yl)pyrrolo[1,2-b]pyridazine-3-carbonitrile]: in test [1], the Dmax amounted to 109% and the DC50 amounted to 15.5 nM. Moreover, the IC50 in test [2] amounted to 0.8 nM.

Turning to `CNc1cc(-c2ccc3cc(C#N)cnn23)ncc1-c1nnc(N2CCC(C(=O)N3CCN(Cc4ccc5c(c4)C(=O)N(C4CCC(=O)NC4=O)C5=O)CC3)CC2)s1` (stereo not drawn) [Example 157, 7-(5-(5-(4-(4-((2-(2,6-dioxopiperidin-3-yl)-1,3-dioxoisoindolin-5-yl)methyl)piperazine-1-carbonyl)piperidin-1-yl)-1,3,4-thiadiazol-2-yl)-4-(methylamino)pyridin-2-yl)pyrrolo[1,2-b]pyridazine-3-carbonitrile], in test [1], the Dmax worked out at 104% and the DC50 amounted to 17.6 nM. Moreover, the IC50 in test [2] turned out to be 1 nM.

These data come from patent US12528814B2, “Bifunctional degraders of interleukin-1 receptor-associated kinases and therapeutic use thereof” (NURIX THERAPEUTICS, INC., priority 2020, dated 2026).
